Measured values taken from ChEMBL document CHEMBL1201862, “PubChem BioAssay data set” (2004).
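96-well plates; 48 h exposure; 5 concentrations. Endpoints by linear interpolation between flanking doses. Not reached: highest tested concentration assigned. GI50 marks 50% less growth.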 Calls of active or inactive are those of the source. No stated cut-off is given here; in the data, active = GI50 up to about 1.1 µM and inactive = higher.

Tests used:
Assay in all cases: NCI anticancer screen, dose series, 48 h
A498 = test system: A498
HCT-116 = test system: HCT-116
HCT-15 = test system: HCT-15
HL-60 = test system: HL-60
HOP-62 = test system: HOP-62
Hs-578T = test system: Hs-578T
IGROV-1 = test system: IGROV-1
MDA-MB-435 = test system: MDA-MB-435
MOLT-4 = test system: MOLT-4
Malme-3M = test system: Malme-3M
NCI/ADR-RES = test system: NCI/ADR-RES
OVCAR-3 = test system: OVCAR-3
OVCAR-5 = test system: OVCAR-5
RPMI-8226 = test system: RPMI-8226
RXF 393 = test system: RXF 393
SF-295 = test system: SF-295
SK-MEL-2 = test system: SK-MEL-2
SW-620 = test system: SW-620
T47D = test system: T47D

SMILES | GI50 (A498) | GI50 (HCT-116) | GI50 (HCT-15) | GI50 (HL-60) | GI50 (HOP-62) | GI50 (Hs-578T) | GI50 (IGROV-1) | GI50 (MDA-MB-435) | GI50 (MOLT-4) | GI50 (Malme-3M) | GI50 (NCI/ADR-RES) | GI50 (OVCAR-3) | GI50 (OVCAR-5) | GI50 (RPMI-8226) | GI50 (RXF 393) | GI50 (SF-295) | GI50 (SK-MEL-2) | GI50 (SW-620) | GI50 (T47D)
N#Cc1nc(-c2ccccc2C(=O)O)oc1N | > 100 µM (inactive) | > 100 µM (inactive) | > 100 µM | > 100 µM (inactive) | > 100 µM (inactive) | > 100 µM (inactive) | > 100 µM (inactive) | > 100 µM (inactive) | > 100 µM (inactive) | > 100 µM (inactive) | > 100 µM (inactive) | > 100 µM (inactive) | > 100 µM (inactive) | > 100 µM (inactive) | > 100 µM (inactive) | > 100 µM (inactive) | > 100 µM (inactive) | > 100 µM (inactive) | > 100 µM (inactive)
CC(=O)N(C(C)=O)c1cc2c3c(c1)CCCN3CCC2 | > 10 µM (inactive) | > 10 µM (inactive) | > 10 µM | > 10 µM (inactive) | > 10 µM (inactive) | > 10 µM (inactive) | > 10 µM (inactive) | > 10 µM (inactive) | > 10 µM (inactive) | > 10 µM (inactive) | > 10 µM (inactive) | > 10 µM (inactive) | > 10 µM (inactive) | > 10 µM (inactive) | > 10 µM (inactive) | > 10 µM (inactive) | > 10 µM (inactive) | > 10 µM (inactive) | > 10 µM (inactive)
COC(=O)/C=C(\S/C(=C(/c1ccccc1)n1cc(C(=O)OC)c(C(=O)OC)n1)c1ccccc1)C(=O)OC | > 100 µM (inactive) | 12.1 µM (inactive) | 11.6 µM | 3.26 µM (inactive) | 16 µM (inactive) | 33.3 µM (inactive) | 17.7 µM (inactive) | 15.8 µM (inactive) | 2.31 µM (inactive) | 14.8 µM (inactive) | 28.4 µM (inactive) | 3.27 µM (inactive) | 18.7 µM (inactive) | 1.95 µM (inactive) | 13.6 µM (inactive) | 53.8 µM (inactive) | 14.9 µM (inactive) | 2.37 µM (inactive) | 3.27 µM (inactive)
O=C(Nc1c(Cl)cccc1Cl)c1c(Cl)c(Cl)c(Cl)c(Cl)c1-c1nc2ccccc2[nH]1 | 11.4 µM (inactive) | 43.5 µM (inactive) | 98.9 µM | > 100 µM (inactive) | 0.0501 µM (active) | 61.8 µM (inactive) | 14.2 µM (inactive) | 38.2 µM (inactive) | 75.3 µM (inactive) | > 100 µM (inactive) | 51.1 µM (inactive) | 25.4 µM (inactive) | > 100 µM (inactive) | 37.2 µM (inactive) | 18 µM (inactive) | 0.0468 µM (active) | > 100 µM (inactive) | 64.6 µM (inactive) | 28 µM (inactive)
CN(CCN(C)Cc1ccc(Cl)c(Cl)c1)CCN1CCCC1 | 16.1 µM (inactive) | 13.1 µM (inactive) | 37.2 µM | 17.5 µM (inactive) | 22.1 µM (inactive) | 9.04 µM (inactive) | 15.8 µM (inactive) | 7.82 µM (inactive) | 9.33 µM (inactive) | 19.7 µM (inactive) | 67.3 µM (inactive) | > 75.7 µM (inactive) | 39.3 µM (inactive) | 7.71 µM (inactive) | 18.5 µM (inactive) | 26.1 µM (inactive) | 24.2 µM (inactive) | 24.3 µM (inactive) | 57.9 µM (inactive)
CCN(CC)CCSc1c2cc(OC)ccc2nc2ccc(OC)cc12 | 23 µM (inactive) | 2.26 µM (inactive) | 2.86 µM | 5.3 µM (inactive) | 16.7 µM (inactive) | 1.68 µM (inactive) | 1.95 µM (inactive) | 7.03 µM (inactive) | 2.29 µM (inactive) | 2.75 µM (inactive) | 7.67 µM (inactive) | 2.59 µM (inactive) | 15.8 µM (inactive) | 2.4 µM (inactive) | 7.38 µM (inactive) | 19.4 µM (inactive) | 17 µM (inactive) | 2.56 µM (inactive) | 1.93 µM (inactive)
O=[N+]([O-])c1c(Br)cc(Br)c2c1Nc1c(ccc(Cl)c1Cl)S2 | 21.1 µM (inactive) | 6.37 µM (inactive) | 16.9 µM | 2.85 µM (inactive) | 18.8 µM (inactive) | 25.1 µM (inactive) | 14.9 µM (inactive) | 15.5 µM (inactive) | 3.06 µM (inactive) | 13.4 µM (inactive) | 29.5 µM (inactive) | 4.8 µM (inactive) | 17.9 µM (inactive) | 14.4 µM (inactive) | 19.6 µM (inactive) | 20.7 µM (inactive) | 18.5 µM (inactive) | 7.14 µM (inactive) | 1.61 µM (inactive)
CCOC(=O)C1=C(C)C(C(=O)OC)/C(=C/c2cccc3cccnc23)C1=O (configuration not stated) | > 10 µM (inactive) | > 10 µM (inactive) | > 10 µM | 9.82 µM (inactive) | > 10 µM (inactive) | > 10 µM (inactive) | > 10 µM (inactive) | > 10 µM (inactive) | > 10 µM (inactive) | > 10 µM (inactive) | > 10 µM (inactive) | > 10 µM (inactive) | > 10 µM (inactive) | > 10 µM (inactive) | > 10 µM (inactive) | > 10 µM (inactive) | > 10 µM (inactive) | > 10 µM (inactive) | > 10 µM (inactive)
